We go through 5 compounds from PMC6864818, “Antioxidant, Xanthine Oxidase, α-Amylase and α-Glucosidase Inhibitory Activities of Bioactive Compounds from Rumex crispus L. Root” (Molecules, 2019).

Molecules are shown by their SMILES. ≈ marks a conversion by molar mass, not a printed value. Where “and” joins values, the source holds several entries; their conditions need not be identical. Equal entries are not always repeated. Where two headings read alike, the source gives them in different places. Marks after values point to notes of the source that are not given here.

Assay [1] can be described thus: DPPH radical scavenging assay. The conditions noted are these: for IC50: value in brackets. (DPPH is a stable violet radical that fades when it is reduced.)
Procedure: (§1) Antioxidant activity of the isolated compounds was determined using DPPH (2,2-diphenyl-1-picrylhydrazyl) radical scavenging assay, ABTS (2,2′-azinobis-(3-ethylbenzothiazoline-6-sulfonic acid)) radical cation decolorization assay, ferric reducing antioxidant power test (FRAP) following previous study [37, 38, 39] with slight modifications.
The nature of assay [2]: ABTS radical cation decolorization assay. The conditions noted are these: ABTS radical scavenging; for IC50: value in brackets.
Procedure: as §1
Assay [3] is described as follows: ferric reducing antioxidant power test (FRAP). The note with it: for IC50: value in brackets.
Procedure: as §1
Assay [4] addresses T1, xanthine oxidase (Homo sapiens, UniProt P47989). Briefly: Xanthine oxidase inhibition (XOD), spectrophotometric. The class given is biochemical.
The target in the next assay is T2, α-glucosidase (Saccharomyces cerevisiae, UniProt P53341).
T2 construct: purchased Sigma-Aldrich
T2 sequence (P53341 whole entry): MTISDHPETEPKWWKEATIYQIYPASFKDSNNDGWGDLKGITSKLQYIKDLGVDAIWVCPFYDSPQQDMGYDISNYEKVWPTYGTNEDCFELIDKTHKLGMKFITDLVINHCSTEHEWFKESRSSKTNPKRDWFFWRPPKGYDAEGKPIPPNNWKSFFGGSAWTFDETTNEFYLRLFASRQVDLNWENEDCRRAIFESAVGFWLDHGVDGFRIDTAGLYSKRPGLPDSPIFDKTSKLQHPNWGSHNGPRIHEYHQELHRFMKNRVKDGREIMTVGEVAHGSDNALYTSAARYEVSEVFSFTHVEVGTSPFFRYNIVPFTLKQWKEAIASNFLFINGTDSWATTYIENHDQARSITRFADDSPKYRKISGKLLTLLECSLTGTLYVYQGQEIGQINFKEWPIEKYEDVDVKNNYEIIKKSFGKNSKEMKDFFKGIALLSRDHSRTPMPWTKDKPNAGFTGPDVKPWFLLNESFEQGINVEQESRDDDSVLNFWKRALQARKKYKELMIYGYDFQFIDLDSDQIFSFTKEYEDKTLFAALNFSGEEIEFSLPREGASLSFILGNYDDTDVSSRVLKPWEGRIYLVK
The experiment in a line: α-Glucosidase inhibition (AGI), pNPG substrate. It is filed as biochemical. On the procedure: The α-glucosidase inhibitory activity of isolated fractions was assayed using a synthetic substrate p-nitrophenyl-α-D-glucopyranoside (pNPG). […] (Table 5).
The anti-α-glucosidase activity of C1–C3 was evaluated using a method described previously with some modifications. In brief, an amount of 20 µL methanolic stock solution of isolated compounds was pre-mixed with an equal volume of 0.1 M potassium phosphate buffer (pH 7) and 40 µL of α-glucosidase (from Saccharomyces cerevisiae, Sigma-Aldrich, St. Louis, MO, USA) enzyme solution (0.5 U/mL in 0.1 M potassium phosphate buffer, pH 7). After 6 min incubation at 25 °C, a 20 µL aliquot of 5 mM p-nitrophenyl-α-D-glucopyranoside (pNPG) substrate (in 0.1 M potassium phosphate buffer, pH 7) was added to each reaction and the mixture was incubated for another 8 min. The reaction was terminated by adding 100 µL of 0.2 M Na2CO3, and absorbance was recorded at 405 nm.

Assay [5] deals with T1, xanthine oxidase. The note with it: modified xanthine oxidase inhibition methods; ref [33]; cited from earlier work.

T1 sequence (P47989 whole entry, species assumed): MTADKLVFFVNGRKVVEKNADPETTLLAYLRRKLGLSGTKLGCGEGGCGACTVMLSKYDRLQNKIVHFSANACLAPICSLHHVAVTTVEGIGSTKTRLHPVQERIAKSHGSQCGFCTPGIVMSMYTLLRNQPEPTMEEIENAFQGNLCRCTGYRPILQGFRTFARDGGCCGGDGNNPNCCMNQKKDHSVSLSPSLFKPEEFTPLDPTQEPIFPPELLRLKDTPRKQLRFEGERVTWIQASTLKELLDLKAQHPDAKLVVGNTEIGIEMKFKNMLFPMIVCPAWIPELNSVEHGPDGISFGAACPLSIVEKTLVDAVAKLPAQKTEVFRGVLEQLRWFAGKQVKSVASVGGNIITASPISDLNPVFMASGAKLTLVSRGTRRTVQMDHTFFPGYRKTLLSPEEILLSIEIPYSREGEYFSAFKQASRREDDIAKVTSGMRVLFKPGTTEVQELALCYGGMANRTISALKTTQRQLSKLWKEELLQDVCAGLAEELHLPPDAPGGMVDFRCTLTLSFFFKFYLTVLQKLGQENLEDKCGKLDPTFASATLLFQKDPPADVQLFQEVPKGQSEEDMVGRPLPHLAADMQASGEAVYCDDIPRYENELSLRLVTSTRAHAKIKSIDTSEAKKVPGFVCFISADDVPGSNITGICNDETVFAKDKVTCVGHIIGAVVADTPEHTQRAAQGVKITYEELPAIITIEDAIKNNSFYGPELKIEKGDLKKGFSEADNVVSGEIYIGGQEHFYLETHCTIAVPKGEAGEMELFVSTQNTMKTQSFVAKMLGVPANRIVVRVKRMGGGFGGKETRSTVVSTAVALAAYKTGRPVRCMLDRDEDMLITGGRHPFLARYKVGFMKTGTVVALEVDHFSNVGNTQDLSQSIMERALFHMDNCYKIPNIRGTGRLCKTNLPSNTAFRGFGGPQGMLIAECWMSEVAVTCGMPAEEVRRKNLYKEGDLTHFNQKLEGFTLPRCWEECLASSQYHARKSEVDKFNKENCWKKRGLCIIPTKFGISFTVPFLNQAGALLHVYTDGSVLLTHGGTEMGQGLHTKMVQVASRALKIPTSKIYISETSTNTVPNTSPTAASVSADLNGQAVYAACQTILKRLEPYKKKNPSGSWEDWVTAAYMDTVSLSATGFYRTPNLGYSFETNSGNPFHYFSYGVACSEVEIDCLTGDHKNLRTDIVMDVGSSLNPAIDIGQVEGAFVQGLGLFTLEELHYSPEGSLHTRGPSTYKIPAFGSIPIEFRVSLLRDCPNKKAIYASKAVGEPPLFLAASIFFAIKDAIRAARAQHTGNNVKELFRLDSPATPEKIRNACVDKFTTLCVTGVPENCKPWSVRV

For `Cc1cc(C(C)(C)C)c(O)c(C(C)(C)C)c1` [BHT, reference compound], in assay [1], the “IC50 DPPH” value is 19.4 µg/mL and 19.2 ± 0.3^b µg/mL; the IC50 is 87.1 µM. Further, in assay [2], the “IC50 ABTS” value is listed as 46.9 ± 0.9^b µg/mL and the IC50 turned out to be 213 µM. Besides, in assay [3], the “IC50 FRAP” value is 422.1 ± 1.1^b µg/mL and the midpoint of inhibition, the IC50, lay at 1920 µM.

As to `COc1cc(O)c2c(c1)C(=O)c1cc(C)cc(O)c1C2=O` [Fraction C3, 1,8-dihydroxy-3-methoxy-6-methylanthraquinone], the “IC50 DPPH” value is recorded as 12.0 ± 0.2^c µg/mL in assay [1] and 12.1 µg/mL (≈ 42.6 µM) in assay [1] (listed as 2). For the same compound, the IC50 in assay [1] was 42.3 µM; in assay [2] it was 158 µM; in assay [3], 1440 µM; against xanthine oxidase [4], 158 µM; against xanthine oxidase [4] (value in brackets), 158 µM; against α-glucosidase (pNPG), 66.5 µM. On α-glucosidase (value in brackets), this compound displayed a half-inhibitory concentration (IC50) of 66.5 µM. Moreover, in assay [2], the “IC50 ABTS” value is 44.8 ± 0.8^b µg/mL. Also, the “IC50 FRAP” value in assay [3] is 408.6 ± 6.8^b µg/mL.

Take `Cc1cc(O)c2c(c1)C(=O)c1cccc(O)c1C2=O` [Fraction C2, 1,8-dihydroxy-3-methylanthraquinone]: the results for the “IC50 DPPH” value in assay [1] and in assay [1] (listed as 1) were 10.0 ± 0.3^c µg/mL and 9.8 µg/mL (≈ 38.5 µM), respectively. Besides, the IC50 in assay [1] was 39.4 µM; in assay [2], 135 µM; in assay [3], 1230 µM; against xanthine oxidase [4], 143 µM; at xanthine oxidase [4] (value in brackets), 143 µM; at α-glucosidase (pNPG) it was 79.1 µM. This compound showed a 50% inhibitory concentration (IC50) at α-glucosidase (value in brackets) of 79.1 µM. Also, in assay [2], the “IC50 ABTS” value is recorded as 34.3 ± 0.7^c µg/mL. Besides, in assay [3], the “IC50 FRAP” value was 312.6 ± 6.3^c µg/mL.

In the case of `COc1c(O)cc(O)c2c(=O)cc(-c3ccccc3)oc12` [wogonin], the IC50 on xanthine oxidase [5] was 157 µM.

Regarding `O=C(O)[C@H]1O[C@@H](Oc2cc3oc(-c4ccccc4)cc(=O)c3c(O)c2O)[C@H](O)[C@@H](O)[C@@H]1O` [baicalin], the 50% inhibitory concentration (IC50) on xanthine oxidase [5] is 215 µM.

The term IC50 denotes the midpoint of a concentration-inhibition curve.
